≈ marks a conversion by molar mass, not a printed value.
Experiments:
Experiment in all cases: Agar dilution MIC in DST agar (Ericsson and Sherris)
Type in all cases: cell-based
Escherichia coli 2018 = details: for MIC Esch. 2018: in vitro; for MIC: Escherichia coli, 2018, in vitro, read-out: MIC Esch. 2018
From the text: (§1) Die antibiotische Aktivität der Testverbindungen in vitro wurde durch die Agarverdünnungsmethode nach Ericsson, H.M., und Sherris, S.C., 1971, Acta Path. Microb. Scand. Section B, Suppl. No. 217, Bd. 1-90, in DST Agara ermittelt. Die gefundenen, das Wachstum der Testorganismen noch hemmenden Minimalkonzentrationen (MIC = minimum inhibiting concentrations) werden in Mikrogramm pro Milliliter (µg/ml) für die geprüften Verbindungen in der Tabelle 1 angegeben.

Escherichia coli 205 = details: for MIC Esch. 205: in vitro; for MIC: Escherichia coli, 205, in vitro, read-out: MIC Esch. 205
From the text: as §1

Proteus morganii 1518 = details: for MIC Prot. 1518: in vitro; for MIC: Morganella morganii, 1518, in vitro, read-out: MIC Prot. 1518
From the text: as §1

Proteus morganii 2359 = details: for MIC Prot. 2359: in vitro; for MIC: Morganella morganii, 2359, in vitro, read-out: MIC Prot. 2359
From the text: as §1

[1] = test system: Pseudomonas aeruginosa K 799/61; details: for MIC Pseu. 799: in vitro, agar dilution, DST agar; for MIC: Pseudomonas aeruginosa, K799/61, read-out: MIC Pseu. 799
From the text: as §1

[2] = test system: Salmonella Typhimurium 277; details: in vitro; for MIC: Salmonella enterica, TYPHIMURIUM, read-out: MIC Salm. 277
From the text: as §1

[3] = test system: Staphylococcus aureus 10B; details: in vitro; for MIC: Staphylococcus aureus, 10B, read-out: MIC Staph. 10B
From the text: as §1

[4] = test system: Staphylococcus aureus 2999; details: for MIC Staph. 2999: in vitro; for MIC: Staphylococcus aureus, 2999, in vitro, read-out: MIC Staph. 2999
From the text: as §1

Row | Molecule | MIC Esch. 2018 (Escherichia coli 2018) [µg/mL] | MIC Esch. 205 (Escherichia coli 205) [µg/mL] | MIC Prot. 1518 (Proteus morganii 1518) [µg/mL] | MIC Prot. 2359 (Proteus morganii 2359) [µg/mL] | MIC Pseu. 799 [1] [µg/mL] | MIC Salm. 277 [2] [µg/mL] | MIC Staph. 10B [3] [µg/mL] | MIC Staph. 2999 [4] [µg/mL] | MIC (Escherichia coli 2018) [µg/mL] | MIC (Escherichia coli 205) [µg/mL] | MIC (Proteus morganii 1518) [µg/mL] | MIC (Proteus morganii 2359) [µg/mL] | MIC [1] [µg/mL] | MIC [2] [µg/mL] | MIC [3] [µg/mL] | MIC [4] [µg/mL]
1 | 4-(4-Isobutyl-2,5-dimethyl-piperazinyl)-imidazolo[4,5-c]-rifamycin SV [Verbindung 76] | 8 | 32 | 8 | 8 | 32 | 32 | 0.01 | 0.01 | – | – | – | – | – | – | – | –
2 | 4-(4-Isobutyl-perhydrct-1,4-diazepinyl)-imidazolo(4,5-c]-rifamycin SV [Verbindung 77] | 8 | 8 | 8 | 8 | 8 | 32 | 0.01 | 0.01 | – | – | – | – | – | – | – | –
3 | 4-(4-Isobutyrylpiperazinyl)-imidazolo[4,5-c]rifamycin SV [Verbindung 70] | 32 | 32 | 32 | 32 | 128 | 128 | 0.02 | 0.02 | – | – | – | – | – | – | – | –
4 | 4-(4-Isopropylcarbamoylmethylpiperazinyl)-imidazolo-[4,5-c]rifamycin SV [Verbindung 72] | 32 | 32 | 32 | 32 | 64 | 128 | 0.05 | 0.05 | – | – | – | – | – | – | – | –
5 | 4-(4-Methoxycarbonylmethylpiperazinyl)-imidazolo[4,5-c]-rifamycin SV [Verbindung 71] | 32 | 32 | 32 | 32 | 128 | 128 | 0.02 | 0.02 | – | – | – | – | – | – | – | –
6 | 4-(4-Morpholinocarbonylmethylpiperazinyl)-imidazolo-[4,5-c]rifamycin SV [Verbindung 73] | 128 | 128 | 32 | 32 | 128 | 128 | 0.05 | 0.05 | – | – | – | – | – | – | – | –
7 | 4-(4-Propyliperazinyl)-imidazolo[4,5-c]rifamycin SV [Verbindung 32] | 8 | 8 | 8 | 8 | 8 | 32 | 0.001 | 0.001 | – | – | – | – | – | – | – | –
8 | 4-(N-Benzyl-N-methylamino)-imidazolo[4,5-c]rifamycin SV [Verbindung 12] | 8 | 8 | 1 | 8 | 8 | 32 | 0.001 | 0.001 | – | – | – | – | – | – | – | –
9 | 4-[4-(1-Methyl-2-dimethylaminoethyl)-piperazinyl]-imidazolo[4,5-c]rifamycin SV [Verbindung 74] | 32 | 128 | 32 | 32 | 128 | 128 | 0.5 | 0.5 | – | – | – | – | – | – | – | –
10 | 4-[4-(2,2-Diethoxyethyl)-piperazinyl]-imidazolo[4,5-c]-rifamycin SV [Verbindung 66] | 16 | 16 | 16 | 16 | 32 | 128 | 0.01 | 0.01 | – | – | – | – | – | – | – | –
11 | 4-[4-(2,2-Dimethoxyethyl)-piperazinyl]-imidazolo- [4,5-c]rifamycin SV [Verbindung 65] | 32 | 32 | 32 | 32 | 32 | 128 | 0.05 | 0.01 | – | – | – | – | – | – | – | –
12 | 4-[4-(2-Dimethylaminoethyl)-piperazinyl-imidazolo[4,5-cl- rifamycin SV [Verbindung 69] | 32 | 32 | 32 | 32 | 128 | 128 | 0.05 | 0.05 | – | – | – | – | – | – | – | –
13 | 4-[4-(2-Ethoxyethyl)-piperazinyl]-imidazolo[4,5-c] rifamycin SV [Verbindung 64] | 16 | 16 | 16 | 16 | 16 | 64 | 0.01 | 0.005 | – | – | – | – | – | – | – | –
14 | 4-[4-(2-Methoxyethyl)-piperazinyl]-imidazolo[4,5-c]rifamycin SV [Verbindung 63] | 8 | 16 | 8 | 8 | 32 | 32 | 0.01 | 0.01 | – | – | – | – | – | – | – | –
15 | 4-[4-(2-Tetrahydrofurylmethyl)-piperazinyl]-imidazolo-[4,5-c]rifamycin SV [Verbindung 61] | 4 | 16 | 4 | 4 | 32 | 32 | 0.005 | 0.005 | – | – | – | – | – | – | – | –
16 | 4-[4-(l,3-Dimethylpropyl)-piperazinyl]-imidazolo[4,5-c]-rifamycin SV [Verbindung 43] | 4 | 8 | 8 | 8 | 16 | 32 | 0.01 | 0.005 | – | – | – | – | – | – | – | –
17 | 4-{4-[2-(1,3- Dioxolan-2-yl)-ethyl]-piperazinyl}-imidazolo-[4,5-c]rifamycin SV [Verbindung 62] | 32 | 32 | 8 | 8 | 32 | 128 | 0.02 | 0.02 | – | – | – | – | – | – | – | –
18 | CCCN(CCC)c1nc2c3c(O)c4c(O)c(C)c5c(c4c2[nH]1)C(=O)C(C)(OC=CC(OC)C(C)C(OC(C)=O)C(C)C(O)C(C)C(O)C(C)C=CC=C(C)C(=O)N3)O5 (stereo not drawn) [Verbindung 7, 4-Dipropylamino-imidazolo[4,5-c]rifamycin SV] | – | – | – | – | – | – | – | – | 8 (≈ 9.74 µM) | 8 (≈ 9.74 µM) | 8 (≈ 9.74 µM) | 8 (≈ 9.74 µM) | 8 (≈ 9.74 µM) | 16 (≈ 19.5 µM) | 0.005 (≈ 0.00609 µM) | 0.005 (≈ 0.00609 µM)
19 | COC1C=COC2(C)Oc3c(C)c(O)c4c(O)c(c5nc(N(C)C(C)C)[nH]c5c4c3C2=O)NC(=O)C(C)=CC=CC(C)C(O)C(C)C(O)C(C)C(OC(C)=O)C1C (stereo not drawn) [Verbindung 8, 4-(N-Isopropyl-N-methylamino)-imidazolo[4,5-c]rifamycin SV] | – | – | – | – | – | – | – | – | 8 (≈ 10.1 µM) | 8 (≈ 10.1 µM) | 8 (≈ 10.1 µM) | 8 (≈ 10.1 µM) | 8 (≈ 10.1 µM) | 32 (≈ 40.4 µM) | 0.01 (≈ 0.0126 µM) | 0.01 (≈ 0.0126 µM)
20 | COC1C=COC2(C)Oc3c(C)c(O)c4c(O)c(c5nc(N(C)C6CCCC6)[nH]c5c4c3C2=O)NC(=O)C(C)=CC=CC(C)C(O)C(C)C(O)C(C)C(OC(C)=O)C1C (stereo not drawn) [Verbindung 10, 4-(N-Cyclopentyl-N-methylamino)-imidazolo[4,5-c]rifamycin SV] | – | – | – | – | – | – | – | – | 4 (≈ 4.88 µM) | 4 (≈ 4.88 µM) | 4 (≈ 4.88 µM) | 4 (≈ 4.88 µM) | 8 (≈ 9.77 µM) | 16 (≈ 19.5 µM) | 0.005 (≈ 0.00611 µM) | 0.005 (≈ 0.00611 µM)
21 | CCCN(CC1CC1)c1nc2c3c(O)c4c(O)c(C)c5c(c4c2[nH]1)C(=O)C(C)(OC=CC(OC)C(C)C(OC(C)=O)C(C)C(O)C(C)C(O)C(C)C=CC=C(C)C(=O)N3)O5 (stereo not drawn) [Verbindung 11, 4-(N-Cyclopropylmethyl-N-propylamino)-imidazolo[4,5-c]rifamycin SV] | – | – | – | – | – | – | – | – | 8 (≈ 9.6 µM) | 8 (≈ 9.6 µM) | 2 (≈ 2.4 µM) | 8 (≈ 9.6 µM) | 8 (≈ 9.6 µM) | 32 (≈ 38.4 µM) | 0.01 (≈ 0.012 µM) | 0.01 (≈ 0.012 µM)
